Laboratory results taken from PubChem BioAssay (NCI).
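Five compound concentrations were applied to cells in 96-well plates for 48 hours; endpoints were derived by simple linear interpolation of the resulting dose-response curve. TGI is the concentration that stops growth completely.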

Tests used:
Assay in all cases: NCI anticancer screen, dose series, 48 h
COLO 205 colon = tested on: COLO 205 colon
HCC-2998 colon = tested on: HCC-2998 colon
HCT-15 colon = tested on: HCT-15 colon
HOP-92 NSCLC = tested on: HOP-92 NSCLC
M14 melanoma = tested on: M14 melanoma
MALME-3M melanoma = tested on: MALME-3M melanoma
MOLT-4 leukemia = tested on: MOLT-4 leukemia
NCI-H23 lung = tested on: NCI-H23 lung
OVCAR-5 ovarian = tested on: OVCAR-5 ovarian
SF-295 CNS = tested on: SF-295 CNS
SF-539 CNS = tested on: SF-539 CNS
SK-OV-3 ovarian = tested on: SK-OV-3 ovarian
SN12C renal = tested on: SN12C renal
SNB-75 CNS = tested on: SNB-75 CNS
SW-620 colon = tested on: SW-620 colon
TK-10 renal = tested on: TK-10 renal

Row | Structure (SMILES) | TGI (COLO 205 colon) [µM] | TGI (HCC-2998 colon) [µM] | TGI (HCT-15 colon) [µM] | TGI (HOP-92 NSCLC) [µM] | TGI (M14 melanoma) [µM] | TGI (MALME-3M melanoma) [µM] | TGI (MOLT-4 leukemia) [µM] | TGI (NCI-H23 lung) [µM] | TGI (OVCAR-5 ovarian) [µM] | TGI (SF-295 CNS) [µM] | TGI (SF-539 CNS) [µM] | TGI (SK-OV-3 ovarian) [µM] | TGI (SN12C renal) [µM] | TGI (SNB-75 CNS) [µM] | TGI (SW-620 colon) [µM] | TGI (TK-10 renal) [µM]
1 | C=C1C(=O)O[C@@H]2/C=C(C)/C=C\[C@@H]3O[C@@]3(C)C[C@@H](O)C12 (some centres not stated) | 21.1 | 33.1 | 27.6 | 20.4 | 49.2 | 30.9 | 30.1 | 33.3 | 85.4 | > 100 | 26 | > 100 | 30.4 | > 100 | 17.2 | 16.1
2 | O=c1[nH]c(=O)n(C2COC(CO)C2O)cc1F (configuration not stated) | > 100 | > 100 | > 100 | > 100 | > 100 | > 100 | > 100 | > 100 | > 100 | > 100 | > 100 | > 100 | > 100 | > 100 | > 100 | > 100
3 | CC(C)(CN1CCCCC1)C(/C=C/c1ccc(Cl)cc1)=N\NC(=O)N/N=C(/C=C/c1ccc(Cl)cc1)C(C)(C)CN1CCCCC1 | 11.7 | 16.3 | 7.99 | 8.72 | 11.1 | 22.9 | 9.97 | 10.3 | 14.7 | 33 | 18.9 | 25.4 | 14.6 | 12.7 | 7.67 | 22.5
4 | O=C1c2cccc3cc([N+](=O)[O-])cc(c23)C(=O)N1Nc1ccc([N+](=O)[O-])cc1[N+](=O)[O-] | 18.3 | 29.2 | 27.4 | > 31.6 | > 74.9 | > 31.6 | 11.8 | 35.7 | > 100 | > 31.6 | > 31.6 | > 31.6 | > 73.5 | > 31.6 | 25.3 | > 46.4
5 | CC(=O)CC1CCC(=O)/C=C/C(=O)OC(CC(C)=O)CCC(=O)/C=C/C(=O)O1 (configuration not stated) | 3.4 | 39.4 | 4.16 | 10.3 | 10.6 | 6.72 | > 100 | 36.4 | 31.5 | 18.4 | 34.9 | 36.1 | 15.3 | 28.8 | 3.65 | 19
6 | O=C1SC(SCc2ccccc2)=NC12CC2c1ccccc1 (configuration not stated) | 61.3 | 28.8 | 51.4 | 53.1 | 37.8 | 34.8 | 10.3 | 42 | 38.9 | 44.8 | 37.7 | > 100 | 44.3 | 71.6 | 53.3 | 81.1
7 | N=c1oc2ccccc2cc1C(=O)NC12CC3CC(CC(C3)C1)C2 | 32.7 | 28.7 | 67.5 | > 100 | > 100 | 98.2 | 10.2 | > 91.6 | > 100 | 67.4 | 42 | 53.5 | > 100 | 71.3 | > 100 | 43.5
8 | O=C1NC2(CCN(CCc3ccccc3)CC2)Oc2ccccc21 | > 100 | > 100 | > 100 | 69.4 | 49.9 | > 100 | > 100 | > 100 | > 100 | > 100 | > 100 | > 100 | > 100 | > 100 | > 100 | > 100
9 | COCOC1/C=C/CCCCC(=O)C(C)C#CC1 (configuration not stated) | 5.4 | 20.2 | 7.11 | 8.46 | 14.5 | 4.95 | 5.64 | 16.3 | 26.2 | 31.3 | 11.7 | 32.3 | 19 | 26.1 | 3.56 | 21.6
10 | C[N+]12C=CC=C1C(N1CCCC1)c1scc(-c3ccc(Br)cc3)c12 (configuration not stated) | 39.8 | 39.9 | > 100 | 42.1 | > 66.4 | 25.4 | > 65.3 | 32.4 | > 100 | > 100 | 21.9 | > 100 | > 35.7 | > 22.3 | > 100 | > 100
11 | COc1cc(-c2cccs2)sc1-c1cccs1 | 27.3 | > 100 | > 100 | 78.9 | > 100 | > 100 | > 100 | > 100 | > 100 | > 100 | > 100 | > 100 | > 100 | 66.5 | > 100 | > 100
12 | Cc1[nH]c(=O)nc2sc(=NC3CCCCC3)n(C3CCCCC3)c(=O)c12 | > 100 | > 100 | > 100 | > 100 | > 100 | > 100 | > 100 | > 100 | > 100 | > 100 | > 100 | > 100 | > 100 | > 100 | > 100 | > 100
